Data on 18 molecules can be found in patent US20250361268A1, “NOVEL ANTI-INFLAMMATORY PEPTIDE AND USE THEREOF” (NOVACELL TECHNOLOGY INC., priority 2022, published 2025).

Peptide text beside a SMILES is read from it.

One assay addresses T1, FPR1 (Homo sapiens, UniProt P21462).
T1 sequence (P21462 1-350): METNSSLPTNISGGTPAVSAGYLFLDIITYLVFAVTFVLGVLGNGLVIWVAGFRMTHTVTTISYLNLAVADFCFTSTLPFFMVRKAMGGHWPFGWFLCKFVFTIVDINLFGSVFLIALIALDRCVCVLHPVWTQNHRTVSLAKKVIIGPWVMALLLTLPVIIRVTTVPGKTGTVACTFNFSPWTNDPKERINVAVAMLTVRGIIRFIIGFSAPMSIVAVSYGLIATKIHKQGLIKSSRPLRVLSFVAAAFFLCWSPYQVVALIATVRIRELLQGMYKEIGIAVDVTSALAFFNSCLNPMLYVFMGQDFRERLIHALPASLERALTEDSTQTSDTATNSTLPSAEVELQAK
Briefly: Change in calcium activity by peptide, FPR1 activation effect. It counts as cell-based. As to conditions: calcium activity (Fura-2), graded per Table 3, read-out: EC50 for [Ca^2+] FPR1. In a few lines:
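Calcium flux induced by peptide addition was monitored on a FlexStation 3 plate reader. Before this, cells seeded a day earlier (3×10^5/well) took up the Fura-2 dye for 1 h at 37 °C plus 30 min dark at room temperature.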

Another assay addresses T2, FPR2 (Homo sapiens, UniProt P25090).
T2 construct: expressed in transfected cells; host or cells: RBL cells (RBL-FPR2)
T2 sequence (P25090 1-351): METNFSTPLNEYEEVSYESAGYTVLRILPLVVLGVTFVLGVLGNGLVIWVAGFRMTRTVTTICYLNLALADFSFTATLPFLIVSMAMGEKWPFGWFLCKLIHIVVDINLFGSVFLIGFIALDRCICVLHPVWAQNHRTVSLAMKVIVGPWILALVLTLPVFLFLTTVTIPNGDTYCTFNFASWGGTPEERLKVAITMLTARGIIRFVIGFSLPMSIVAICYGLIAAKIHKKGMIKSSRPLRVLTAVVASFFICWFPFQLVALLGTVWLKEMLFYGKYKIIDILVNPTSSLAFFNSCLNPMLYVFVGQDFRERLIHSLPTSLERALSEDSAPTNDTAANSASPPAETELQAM
The assay is described as follows: Change in calcium activity by peptide (Fura-2) in RBL cells overexpressing FPR2. Type of assay: cell-based. As to conditions: calcium activity (Fura-2), graded per Table 3, read-out: EC50 for [Ca^2+] FPR2. In short, it runs like this: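 Peptide-induced intracellular calcium change measured by Fura-2 fluorescence on a plate reader. Cells: RBL line overexpressing FPR2, dye-loaded 1 h at 37 °C then 30 min at RT in dark; peptides from 0.5 mM water/50% DMSO stocks, diluted in HBSS with 20 mM HEPES.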

As for `CSCC[C@@H](NC(=O)[C@@H](NC(=O)[C@H](CCCCN)NC(=O)[C@H](Cc1ccc(O)cc1)NC(=O)[C@H](CCCCN)NC(=O)[C@H](Cc1c[nH]c2ccccc12)NC(=O)[C@H](CCCCN)NC(C)=O)C(C)C)C(N)=O` [Peptide 4] (HELM PEPTIDE1{[ac].K.W.K.Y.K.V.[dM].[am]}$$$$V2.0), the values for the EC50 at FPR1 and at FPR2 were above 10000 nM and below 10 nM, respectively.
As for `CSCC[C@@H](NC(=O)[C@@H]1CCCN1C(=O)[C@H](Cc1c[nH]c2ccccc12)NC(=O)[C@H](Cc1ccc(O)cc1)NC(=O)[C@H](CCCNC(=N)N)NC(=O)[C@@H](N)Cc1c[nH]c2ccccc12)C(N)=O` [Peptide 118] (HELM PEPTIDE1{W.R.Y.W.P.[dM].[am]}$$$$V2.0), the EC50 (commonly the concentration that produces a half-maximal response) is 101 to 1000 nM on FPR1 and below 10 nM at FPR2.
Turning to `CSCC[C@@H](NC(=O)[C@H](Cc1ccc(O)cc1)NC(=O)[C@H](CCCNC(=N)N)NC(=O)[C@H](Cc1ccc(O)cc1)NC(=O)[C@H](CCCNC(=N)N)NC(=O)[C@H](Cc1c[nH]c2ccccc12)NC(=O)[C@@H](N)CCCNC(=N)N)C(N)=O` [Peptide 48] (HELM PEPTIDE1{R.W.R.Y.R.Y.[dM].[am]}$$$$V2.0), the values for the EC50 at FPR1 and at FPR2 were above 10000 nM and 11 to 100 nM, respectively.
On the same counts, the results for `CSCC[C@H](NC(C)=O)C(=O)N[C@@H](CCCNC(=N)N)C(=O)N[C@@H](Cc1ccc(O)cc1)C(=O)N[C@@H](Cc1c[nH]c2ccccc12)C(=O)N[C@H](C(=O)N[C@H](CCSC)C(N)=O)C(C)C` [Peptide 105] (HELM PEPTIDE1{[ac].M.R.Y.W.V.[dM].[am]}$$$$V2.0) are 101 to 1000 nM and below 10 nM.
On the same counts, the results for `CSCC[C@@H](NC(=O)[C@H](Cc1ccc(O)cc1)NC(=O)[C@@H](NC(=O)[C@H](Cc1ccc(O)cc1)NC(=O)[C@H](CCCNC(=N)N)NC(=O)[C@H](Cc1c[nH]c2ccccc12)NC(=O)[C@@H](N)CCCNC(=N)N)[C@@H](C)O)C(N)=O` [Peptide 157] (HELM PEPTIDE1{R.W.R.Y.T.Y.[dM].[am]}$$$$V2.0) are above 10000 nM and below 10 nM.
Take `CSCC[C@H](N)C(=O)N[C@@H](CCCNC(=N)N)C(=O)N[C@@H](Cc1ccc(O)cc1)C(=O)N[C@@H](Cc1c[nH]c2ccccc12)C(=O)N1CCC[C@H]1C(=O)N[C@H](CCSC)C(N)=O` [Peptide 110] (HELM PEPTIDE1{M.R.Y.W.P.[dM].[am]}$$$$V2.0): the values for the EC50 on FPR1 and on FPR2 were 101 to 1000 nM and below 10 nM, respectively.
Regarding `CSCC[C@H](NC(=O)[C@@H]1CCCN1)C(=O)N[C@@H](CCCCN)C(=O)N[C@@H](Cc1ccc(O)cc1)C(=O)N[C@@H](CCCCN)C(=O)N[C@H](C(=O)N[C@H](CCSC)C(N)=O)C(C)C` [Peptide 25] (HELM PEPTIDE1{P.M.K.Y.K.V.[dM].[am]}$$$$V2.0), the concentration giving a half-maximal response (EC50) is above 10000 nM on FPR1 and below 10 nM on FPR2.
In the case of `CCCC(=O)N[C@@H](Cc1c[nH]cn1)C(=O)N[C@@H](Cc1c[nH]c2ccccc12)C(=O)N[C@@H](CCCCN)C(=O)N[C@@H](Cc1ccc(O)cc1)C(=O)N[C@@H](CCCCN)C(=O)N[C@@H](Cc1ccc(O)cc1)C(=O)N[C@H](CCSC)C(N)=O` [Peptide 37] (HELM PEPTIDE1{[CCCC(=O)[*:2]].H.W.K.Y.K.Y.[dM].[am]}$$$$V2.0), the EC50 on FPR1 is above 10000 nM; on FPR2 it was below 10 nM.
Consider `CCCC(=O)N1CCC[C@H]1C(=O)N[C@@H](CCSC)C(=O)N[C@@H](CCCNC(=N)N)C(=O)N[C@@H](Cc1ccc(O)cc1)C(=O)N[C@@H](CCCCN)C(=O)N[C@@H](Cc1ccc(O)cc1)C(=O)N[C@H](CCSC)C(N)=O` [Peptide 47] (HELM PEPTIDE1{[CCCC(=O)[*:2]].P.M.R.Y.K.Y.[dM].[am]}$$$$V2.0), for which the 50% effective concentration (EC50) at FPR1 was above 10000 nM; on FPR2, below 10 nM.
In the same order, the values of `CCCCCCCC(=O)N1CCC[C@H]1C(=O)N[C@@H](CCSC)C(=O)N[C@@H](CCCNC(=N)N)C(=O)N[C@@H](Cc1ccc(O)cc1)C(=O)N[C@@H](CCCCN)C(=O)N1CCC[C@H]1C(=O)N[C@H](CCSC)C(N)=O` [Peptide 65] (HELM PEPTIDE1{[CCCCCCCC(=O)[*:2]].P.M.R.Y.K.P.[dM].[am]}$$$$V2.0) are above 10000 nM and below 10 nM.
Turning to `CCCCCCCC(=O)N[C@@H](CCCNC(=N)N)C(=O)N[C@@H](CCSC)C(=O)N[C@@H](CCCNC(=N)N)C(=O)N[C@@H](Cc1ccc(O)cc1)C(=O)N[C@@H](Cc1c[nH]c2ccccc12)C(=O)N1CCC[C@H]1C(=O)N[C@H](CCSC)C(N)=O` [Peptide 109] (HELM PEPTIDE1{[CCCCCCCC(=O)[*:2]].R.M.R.Y.W.P.[dM].[am]}$$$$V2.0), the values for the EC50 on FPR1 and on FPR2 were 1000 to 10000 nM and below 10 nM, respectively.
With `CSCC[C@H](NC(=O)[C@H](CCCCN)NC(C)=O)C(=O)N[C@@H](CCCCN)C(=O)N[C@@H](Cc1ccc(O)cc1)C(=O)N[C@@H](CCCCN)C(=O)N[C@H](C(=O)N[C@H](CCSC)C(N)=O)C(C)C` [Peptide 10] (HELM PEPTIDE1{[ac].K.M.K.Y.K.V.[dM].[am]}$$$$V2.0), the EC50 at FPR1 was above 10000 nM; on FPR2, 11 to 100 nM.
In the same order, the values of `CSCC[C@H](NC(C)=O)C(=O)N[C@@H](CCCNC(=N)N)C(=O)N[C@@H](Cc1ccc(O)cc1)C(=O)N[C@@H](CCCNC(=N)N)C(=O)N[C@@H](Cc1ccc(O)cc1)C(=O)N[C@H](CCSC)C(N)=O` [Peptide 49] (HELM PEPTIDE1{[ac].M.R.Y.R.Y.[dM].[am]}$$$$V2.0) are above 10000 nM and 11 to 100 nM.
`CCCCCCCC(=O)N[C@@H](CCCNC(=N)N)C(=O)N[C@@H](Cc1c[nH]c2ccccc12)C(=O)N[C@@H](CCCNC(=N)N)C(=O)N[C@@H](Cc1ccc(O)cc1)C(=O)N[C@@H](CCCCN)C(=O)N[C@H](C(=O)N[C@H](CCSC)C(N)=O)C(C)C` [Peptide 2] (HELM PEPTIDE1{[CCCCCCCC(=O)[*:2]].R.W.R.Y.K.V.[dM].[am]}$$$$V2.0): the figures for the EC50 at FPR1 and at FPR2 were 1000 to 10000 nM and 11 to 100 nM, respectively.
As to `CSCC[C@@H](NC(=O)[C@H](Cc1ccc(O)cc1)NC(=O)[C@H](Cc1c[nH]c2ccccc12)NC(=O)[C@H](Cc1ccc(O)cc1)NC(=O)[C@H](CCCNC(=N)N)NC(=O)[C@H](Cc1c[nH]c2ccccc12)NC(=O)[C@H](CCCNC(=N)N)NC(C)=O)C(N)=O` [Peptide 78] (HELM PEPTIDE1{[ac].R.W.R.Y.W.Y.[dM].[am]}$$$$V2.0), the values for the EC50 on FPR1 and at FPR2 were above 10000 nM and below 10 nM, respectively.
On to `CSCC[C@H](NC(C)=O)C(=O)N[C@@H](CCCNC(=N)N)C(=O)N[C@@H](Cc1ccc(O)cc1)C(=O)N[C@@H](CCCCN)C(=O)N[C@@H](Cc1ccc(O)cc1)C(=O)N[C@H](CCSC)C(N)=O` [Peptide 42] (HELM PEPTIDE1{[ac].M.R.Y.K.Y.[dM].[am]}$$$$V2.0), for which the values for the EC50 at FPR1 and on FPR2 were above 10000 nM and 11 to 100 nM, respectively.
For the molecule `CSCC[C@@H](NC(=O)[C@H](Cc1ccc(O)cc1)NC(=O)[C@H](Cc1c[nH]c2ccccc12)NC(=O)[C@H](Cc1ccc(O)cc1)NC(=O)[C@H](CCCCN)NC(=O)[C@H](Cc1c[nH]c2ccccc12)NC(=O)[C@H](CCCCN)NC(C)=O)C(N)=O` [Peptide 80] (HELM PEPTIDE1{[ac].K.W.K.Y.W.Y.[dM].[am]}$$$$V2.0), the values for the half-maximal effective concentration (EC50) at FPR1 and on FPR2 were above 10000 nM and below 10 nM, respectively.
In the same order, the values of `CSCC[C@H](NC(C)=O)C(=O)N[C@@H](CCCNC(=N)N)C(=O)N[C@@H](Cc1ccc(O)cc1)C(=O)N[C@@H](Cc1c[nH]c2ccccc12)C(=O)N1CCC[C@H]1C(=O)N[C@H](CCSC)C(N)=O` [Peptide 111] (HELM PEPTIDE1{[ac].M.R.Y.W.P.[dM].[am]}$$$$V2.0) are 1000 to 10000 nM and below 10 nM.
